A short description of this data set: CB1 related side-effects: body temperature lowering, LAD. It counts as in vivo. As to the method:
CB1 related undesired side-effects such as lowering of body temperature, flat body posture, and mydriasis were measured for a number of compounds of the present invention and a number of compounds covered by reference WO-2006/048754.

For the compound `CCS(=O)(=O)c1ccc2c(c1)nc(C(C)(C)C)n2CC1CCOCC1` [Co. No. F, reference compound], the “LAD (Lowest Acceptable Dose) at which lowering of body temperature was observed in more than half of the treated animals” value came to 10 mg/kg.

Turning to `CC(C)(C)c1nc2cc(S(=O)(=O)C3CCCC3)ccc2n1CC1CCOCC1` [Co. No. C, reference compound], the “LAD (Lowest Acceptable Dose) at which lowering of body temperature was observed in more than half of the treated animals” value came out at 5 mg/kg.

Regarding `CC(=O)N1CCC(Cn2c(C(C)(C)C)nc3cc(S(=O)(=O)CCCC(F)(F)F)ccc32)CC1` [Co. No. 3], the “LAD (Lowest Acceptable Dose) at which lowering of body temperature was observed in more than half of the treated animals” value was more than 40 mg/kg.

For `CC(C)(C)c1nc2cc(S(=O)(=O)CCCC(F)(F)F)ccc2n1CC1CCOCC1` [Co. No. B, reference compound], the “LAD (Lowest Acceptable Dose) at which lowering of body temperature was observed in more than half of the treated animals” value was found to be 10 mg/kg.

As to `CC(=O)N1CCC(Cn2c(C(C)(C)C)nc3cc(S(=O)(=O)c4ccncc4)ccc32)CC1` [Co. No. 34], the “LAD (Lowest Acceptable Dose) at which lowering of body temperature was observed in more than half of the treated animals” value was more than 40 mg/kg.

As to `CC(=O)N1CCC(Cn2c(C(C)(C)C)nc3cc(S(=O)(=O)C4CCCC4)ccc32)CC1` [Co. No. 35], the “LAD (Lowest Acceptable Dose) at which lowering of body temperature was observed in more than half of the treated animals” value is more than 40 mg/kg.

On to `CCS(=O)(=O)c1ccc2c(c1)nc(CC(C)(C)C)n2CC1CCN(C(C)=O)CC1` [Co. No. 46], for which the “LAD (Lowest Acceptable Dose) at which lowering of body temperature was observed in more than half of the treated animals” value is given as more than 40 mg/kg.

Turning to `CCS(=O)(=O)c1ccc2c(c1)nc(C(C)(C)C)n2CC1CCS(=O)(=O)CC1` [Co. No. 29], the “LAD (Lowest Acceptable Dose) at which lowering of body temperature was observed in more than half of the treated animals” value is listed as more than 40 mg/kg.

For the compound `CCS(=O)(=O)c1ccc2c(c1)nc(C(C)(C)C)n2CC1CCN(C(C)=O)CC1` [Co. No. 1], the “LAD (Lowest Acceptable Dose) at which lowering of body temperature was observed in more than half of the treated animals” value is given as more than 40 mg/kg.

On to `CCS(=O)(=O)c1ccc2c(c1)nc(C(C)(C)C)n2CC1CCN(C=O)CC1` [Co. No. 28], for which the “LAD (Lowest Acceptable Dose) at which lowering of body temperature was observed in more than half of the treated animals” value was more than 40 mg/kg.

As for `CC(C)(C)c1nc2cc(S(=O)(=O)c3ccncc3)ccc2n1CC1CCOCC1` [Co. No. D, reference compound], the “LAD (Lowest Acceptable Dose) at which lowering of body temperature was observed in more than half of the treated animals” value worked out at 10 mg/kg.

Values taken from patent US8193369B2, “Benzimidazole cannabinoid agonists” (Janssen Pharmaceutica NV, priority 2007, dated 2012).
